This passage reports IC50 results from BindingDB's records for doi:10.1021/jm00011a006 (University of Minnesota, 1995).

The target in the test is Aldehyde dehydrogenase (Saccharomyces cerevisiae). Kind of test: In vitro inhibition against yeast Aldehyde dehydrogenase.
In turn, `CCOC(=O)On1nnc2ccccc21` [Carbonic acid benzotriazol-1-yl ester ethyl ester] displayed an IC50 of 270 µM.

In turn, `CCOC(=O)ON1C(=O)c2ccccc2S1(=O)=O` [Carbonic acid ethyl ester 1,1,3-trioxo-1,3-dihydro-1lambda*6*-benzo[d]isothiazol-2-yl ester] displayed an IC50 of 56 µM.

`CCOC(=O)ON(C(=O)OCC)S(=O)(=O)c1ccc(Cl)cc1` [ethyl (4-chlorophenyl)sulfonyl[(ethoxycarbonyl)oxy]carbamate] registered a concentration for half-maximal inhibition (IC50) of 24 µM.
